In one data set the test system is Bibionidae. Particulars: chronic/long-term; duration: 28 days.
The next data set deals with Daphnia magna. The settings on record: chronic/long-term; duration: 21 days; reproduction.
For a further data set, the system named is Oncorhynchus mykiss. Particulars: chronic/long-term; duration: 91 days; mortality.
A further data set concerns Tagia sp. The settings on record: acute; duration: 14 days; mortality.
A further data set concerns Lepomis macrochirus. Particulars: acute; duration: 96 hours; mortality.
In the next data set the test system is Apis mellifera. Particulars: acute; duration: 48 hours; oral; unspecified; mortality.
A further data set deals with Canidae. Particulars: chronic; duration: 2 years; oral; diet; Dog Other; body weight.
The subject of a further data set is Coturnix coturnix. Particulars: acute; oral; mortality.
The subject of another data set is Aphidius rhopalosiphi. Put plainly: LR50; higher = less toxic. Particulars: not reported; mortality.
Setting [1] is: reproduction developmental, organ weight.

Each structure is given as a SMILES string. ≈ marks a conversion by molar mass, not a printed value.

For `CCOC(=O)[C@@H](C)Oc1ccc(Oc2nc3ccc(Cl)cc3o2)cc1` [Fenoxaprop-P-ethyl], the NOEC in the data set with Bibionidae was found to be 0.2 mg/L; in the data set with Daphnia magna, 0.22 mg/L; in the data set on Oncorhynchus mykiss it was 0.036 mg/L. The LD50 in the data set with Rattus norvegicus (acute, oral, mortality) is more than 3150 mg/kg-day; with Apis mellifera it was more than 199 µg/piece; in the data set with Coturnix coturnix, 2000 mg/kg-day. Further, the no-observed-adverse-effect level (NOAEL) came to 10 mg/kg-day in the data set on Rattus norvegicus (developmental, development); 1.4 mg/kg-day in the data set on Rattus norvegicus (setting [1]); 1 mg/kg-day with Canidae. Moreover, the LC50 in the data set with Tagia sp. is more than 1000 mg/kg; with Lepomis macrochirus it was 0.19 mg/L (≈ 0.525 µM). The molecule also showed an LR50 in the data set on Aphidius rhopalosiphi of 46.4 g/ha.
As for `CCOC(=O)C(C)Oc1ccc(Oc2nc3ccc(Cl)cc3o2)cc1` (stereo not given) [Fenoxaprop-ethyl], the NOAEL with Rattus norvegicus (developmental, development) came to 10 mg/kg-day; with Rattus norvegicus (setting [1]), 1.4 mg/kg-day; with Canidae, 1 mg/kg-day.

By NOAEL is commonly meant the highest tested level that showed no adverse finding.

Source of the values: EPA's ToxValDB 9.5 (doi:10.2903/j.efsa.2007.121r).
